Experimental data published in US20220195432A9 (priority 2020, published 2022).

How the values were obtained:
[1] = system: IAV; parameters: species or system mice; details: mouse, in vivo
[2] = system: SARS-CoV2; experiment: SARS-CoV2 infection of human ACE2 mice, paquinimod nasal drop group versus control; type: in vivo
[3] = system: MHV; type: in vivo, mice
[4] = system: MHV; type: in vivo; details: IFNar knockout mice infected with MHV, paquinimod nasal drop group, FIG. 17
[5] = SARS-CoV2 pneumonia animal model
[6] = MHV-infected lung tissues of IFNar knockout mice, FIG. 18

SMILES: CCc1cccc2c1c(O)c(C(=O)N(CC)c1ccccc1)c(=O)n2C [paquinimod]
- survival rate [1]: no significant difference
- replication of SARS-CoV-2 ([2]; FIG. 18): inhibiting replication
- inflammation level [2, 5]: decreasing the inflammation level
- virus titer in tissues [2, 5]: inhibits the virus titer in tissues
- inflammation and lung damage caused by inflammation [3, 6]: reducing inflammation and lung damage
- lung S100A8 gene expression [3, 6]: not up-regulated
- activation of neutrophils caused by coronavirus infection ([3]; coronavirus-infected mice): inhibit the activation of neutrophils
- replication of MHV ([3]; lung tissues of IFNar knockout mice, FIG. 18): inhibiting replication
- survival rate [4]: increased survival rate
